A word on the Kd: it is the concentration at which binding is half-saturated.

Read-outs that look alike come from different tables or passages of the source. No end group written: not given here.

The results in this text go back to US8153599B1, “Compounds with the biological activity of vasoactive intestinal peptide for the treatment of pulmonary and arteriolar hypertension” (Mondobiotech AG, priority 2000, dated 2012).

The test system of test [1] is isolated VSMC prepared from pulmonary arteries. Put plainly: Binding of 99 mTc-VIP to isolated VSMC prepared from pulmonary arteries. Set-up: species or system human. The settings on record: for Kd: read-out: binding affinity Kd. The text has this:
FIG. 4: Binding of 99 mTc-VIP to isolated VSMC prepared from pulmonary arteries of PPH patients (4b) and control patients (4a).
(§1) While VIP-R mRNA accumulation is easily detectable PPH, only low levels of VIP-R mRNA accumulation can be detected in healthy controls (FIG. 3). Analogously an increased receptor binding activity for VIP is seen in primary cultures of pulmonary artery vascular smooth muscle cells (PaVSMC) prepared from pulmonary resistance vessels of PPH patients compared to healthy subjects (FIGS. 4a and 4b). […] Pharmacologically, nitric oxide induces vasodilatation by lowering the intracellular free calcium concentration of PaVSMC.

Test [2] in a line: Inhaled VIP in COPD patient with secondary pulmonary hypertension (SPH). It counts as in vivo, human. Here is the method:
A patient suffering from Chronic Obstructive Pulmonary Disease (COPD) with secondary pulmonary hypertension (SPH) (mPAP 32 mmHg) was tested for their response to inhaled VIP (200 μg in 3 ml NaCl 0.9%) The inhalation of VIP led to a decrease of mPAP from 32 mmHg to 25 mmHg. This effect was paralleled by increase of cardiac output from 4.1 l·min^−1 to 4.8 l·min^−1.

Test [3] in a line: Acute testing of inhaled peptide in PPH patient, right heart catheterisation (pulmonary hemodynamics and gas exchange). It counts as in vivo, human. The settings on record: for time dependence of mPAP decrease: 100 μg inhaled (FIG. 5b).
The nature of test [4]: i.v. VIP in patient with severe essential arteriolar hypertension, intraarterial blood pressure monitoring. It counts as in vivo, human. As to conditions: 20 ng/kg/min i.v. Here is the method: FIG. 7: The effect of VIP on systolic and diastolic blood pressure in a patient with essential hypertension after intravenous injection. The patient received VIP at 20 ng/kg/b.w./min. Blood pressure was measured intraarterially. Y-axis: pressure (mmHg), x-axis: time (min).
A patient with severe essential arteriolar hypertension is under treatment with nifedipine and enalapril. Systolic and diastolic systemic arterial pressure (SAP) were measured by intraarterial monitoring. VIP (20 ng/kg/min) was injected i.v. via a portable pump system (CADD-1, Pharmacia-Upjohn, Vienna, Austria). […] Before injection of VIP, the systolic pressure (SAP) was 165 mmHg and the diastolic (DAP) was 110 mmHg.

A short description of test [5]: Acute testing of inhaled peptide in PPH patient, right heart catheterisation (pulmonary hemodynamics and gas exchange). As to conditions: for mean pulmonary artery pressure (mPAP) after inhalation: 100 μg inhaled for 15 minutes, measured 15 minutes after, baseline 63 (VIP) / 65 (PACAP) mmHg; for PVR after inhalation / SvO2 after inhalation / PaO2 after inhalation: 100 μg inhaled; for PVR after inhalation: baseline 12 (VIP) / 13 (PACAP) woods; for SvO2 after inhalation: baseline 61% (VIP) / 59% (PACAP); for PaO2 after inhalation: baseline 91%. The format is in vivo, human. Here is the method:
A patient with severe PPH was under therapy with diltiazem, furosemid and an anticoagulant. Right heart catheterisation (Swan-Ganz, Baxter, Irvine, Calif., USA) was performed to measure mean pulmonary artery pressure (mpap), cardiac output (CO), mean arterial pressure (MAP), pulmonary capillary wedge pressure (PCWP) mixed venous oxygen saturation (SvO2%) and systemic arterial oxygen pressure (PaO2%). VIP (100 μg in 3 ml NaCl 0.9%) was inhaled for 15 minutes via the MicroDrop Master Jet (MPV, Truma, Germany) using a particle size of 3 μm to provide alveolar deposition of the substance. Alternatively VIP was injected i.v. 20 (ng/kg.b.w./min) via portable pump system (CADD-1, Pharmacia-Upjohn, Vienna, Austria). Pulmonary homodynamic and gas exchange were measured before and 15 minutes after inhalation or i.v. injection of VIP. Right heart catheterisation was performed in the intensive care unit. The patient was monitored on-line electrocardiographically, invasive blood pressure and systemic arterial oxygen saturation (SaO2%) (Hewlett Packard, Böblingen, Germany) were measured. All hemodynamic and oxygen measurements were performed with a cardiac output computer (Explorer, Baxter) and a pressure monitoring kit (Baxter, Irvine, Calif., USA). Calculations were made according to the standard equations in a […] by taking blood from the radial and pulmonary artery (Automatic blood gas system, AVL-995-Hb, Austria). At baseline (before inhalation of VIP), mPAP was 63 mmHg, CI 3.6 l·min^−1, PVR 12 woods, PCWP 9 mmHg, PaO2 91% and SvO2 61%. Addition of 100 μg inhaled VIP improved pulmonary hemodynamic parameters; mPAP decreased to 49 mmHg and PVR to 9 woods. PaO2 to 93% and SvO2 to 63% compared to baseline.
A patient with severe PPH was under therapy with diltiazem, furosemid and an anticoagulant. Right heart catheterisation (Swan-Ganz, Baxter, Irvine, Calif., USA) was performed to measure mean pulmonary artery pressure (mpap), cardiac output (CO), mean arterial pressure (mAP), pulmonary capillary wedge pressure (PCWP) mixed venous oxygen saturation (SvO2%) and systemic arterial oxygen pressure (PaO2%). PACAP (100 μg in 3 ml NaCl 0.9%) was inhaled for 15 minutes via the MicroDrop Master Jet (MPV, Truma, Germany) using a particle size of 3 μm to provide alveolar deposition of the substance. Pulmonary hemodynamics and gas exchange were measured before and 15 minutes after inhalation of PACAP. Right heart catheterisation was performed in the intensive care unit. The patient was monitored on-line electrocardiographically, invasive blood pressure and systemic arterial oxygen saturation (SaO2%) (Hewlett Packard, Böblingen, Germany) were measured. All hemodynamic and oxygen measurements were performed with a cardiac output computer (Explorer, Baxter) and a pressure monitoring kit (Baxter, Irvine, Calif., USA). Calculations were made according to the standard equations in a patient data management system (CareVue 9000, Hewlett Packard, Böblingen, Germany). Blood gas analysis was performed by taking blood from the radial and pulmonary artery (Automatic blood gas system, AVL-995-Hb, Austria). At baseline (before inhalation of PACAP), mPAP was 65 mmHg, CI 3.2 l·min^−1, PVR 13 woods, PCWP 10 mmHg, PaO2 91% and SvO2 59%. Addition of 100 μg inhaled PACAP improved pulmonary hemodynamic parameters; mpap decreased to 45 mmHg and PVR to 8 woods. PaO2 increased to 93% and SvO2 to 62% compared to baseline.

In test [6] the test system is VSMC prepared from pulmonary arteries. Description: Interleukin1-b induced elevation of intracellular free calcium in VSMC from pulmonary arteries, fura-2 method. It counts as cell-based, human. As to conditions: VIP 250 ng/ml and 500 ng/ml (FIG. 9). On the procedure: FIG. 9: The effect of VIP on the interleukin1-b induced elevation of intracellular free calcium concentration in VSMC prepared from pulmonary arteries. Ordinate-Ca2+ (nmol). 1-basal concentration; 2-interleukin1-b; 3-interleukin1-b plus VIP 250 ng/ml and 4-VIP 500 ng/ml intracellular calcium concentration during incubation with VIP; Ca 2+ was determined by fura-2 method.
as §1

Test [7] has as its system VSMC from pulmonary arterial vessel. Description: Proliferation of VSMC from pulmonary arterial vessel. It counts as cell-based, human. The settings on record: 10^−12 M to 10^−9 M (FIG. 10).
Description: FIG. 10: The effect of VIP on the proliferation of VSMC from pulmonary arterial vessel. Ordinate-proliferation as percent of control. 1-without VIP; 2-10^−12M VIP; 3-10^−11M VIP; 4-10^−10M VIP; 5-10^−9M VIP.
as §1

Test [8] relates to Nitric oxide synthetase (ecnos). Put plainly: Nitric oxide synthetase (ecnos) expression in endothelial cells from pulmonary arteries, Western blot. The format is cell-based, human. As to conditions: 10^−7 M, normoxic and hypoxic conditions, 96 hours (FIG. 8). Here is the method: FIG. 8: Nitric oxide synthetase (ecnos) expression in endothelial cells prepared from pulmonary arteries of control subjects after 96 hours of incubation. Cells were incubated with VIP (10^−7 M) under normoxic (−) and hypoxic (+) conditions for various times. Western blots reveal constitutive expression under normoxic conditions without VIP.
as §1

Test [9] relates to human pulmonary arterial rings. Description: Vasodilatory effect on human pulmonary arterial rings (vascular tone in vitro). It counts as cell-based. As to conditions: after increase of tone by 80 mmol K+, increasing concentrations (FIG. 6). The text has this:
FIG. 6: Vasodilatory effect of VIP on human pulmonary arterial rings. Arteries of patients subjected to thorax surgery were surgically removed and tested in vitro under standardized procedures for their vascular tone.

The target of test [10] is VIP receptor (VIP-R) on vascular smooth muscle cells prepared from human pulmonary arteries (human). Description: radioligand binding of 99mTc-VIP to isolated VSMC from pulmonary arteries of control patients (FIG. 4a).
Test [11] shares this target. Description: radioligand binding of 99mTc-VIP to isolated VSMC from pulmonary arteries of PPH patients (FIG. 4b).
[12] abbreviates: VSMC of control patients (FIG. 4a).

Turning to 99 mTc-VIP: radiolabeled VIP, in [1] (VSMC of PPH patients (FIG. 4b)), the “specific binding Bmax” value is given as 0.9 pm per mg protein and the Kd came to 1.6 pM. Moreover, in test [1] (setting [12]), the “specific binding Bmax” value is 0.6 pm per mg protein and the Kd is 42 pM.

In the case of “His-Ser-Asp-Ala-Val-Phe-Thr-Asp-Asn-Tyr-Thr-Arg-Leu-Arg-Lys-Gln-Met-Ala-Val-Lys-Lys-Tyr-Leu-Asn-Ser-Ile-Leu-Asn (HSDAVFTDNYTRLRKQMAVKKYLNSILN; listed as Homo sapiens) [VIP, 28 amino acid peptide hormone]”, the mPAP after inhalation in [2] (200 μg in 3 ml NaCl 0.9% inhaled, from 32 mmHg) is given as 25 mmHg. Further, the “cardiac output after inhalation” value in test [2] (200 μg inhaled, from 4.1 l·min^−1) is 4.8 L/min. For the same molecule, the “time dependence of mPAP decrease” value in [3] (PPH patient) is listed as “Time dependant decrease”. Also, in test [3] (PPH patient, increased inhaled doses (FIG. 5a)), the “dose dependence of mPAP decrease” value was “dose-dependently decrease”. In test [3] (PPH patient, inhaled), the dose of maximum efficacy on mPAP turned out to be 100 µg. Also, in [4] (before 110 mmHg), the “diastolic pressure (DAP) after application” value was 90 mmHg. Moreover, the “systolic pressure (SAP) after application” value in test [4] (before 165 mmHg) is on record as 145 mmHg. Further, in test [5], the “mean pulmonary artery pressure (mPAP) after inhalation” value is 49 mmHg, the PVR after inhalation turned out to be 9 woods, the SvO2 after inhalation is recorded as 63% and the PaO2 after inhalation was determined as 93%. Further, the “intracellular free calcium concentration” value in test [6] is reported as “decrease of the intracellular free calcium concentration”. Further, the “proliferation of PaVSMC” value in test [7] is “inhibits the proliferation”. Besides, the ecnos expression entry in test [8] was “increased expression of ecnos above constitutional level”. Further, in test [9], the vessel tone entry was “continuous decrease of the vessel tone”.

Take “His-Ser-Asp-Gly-Ile-Phe-Thr-Asp-Ser-Tyr-Ser-Arg-Tyr-Arg-Lys-Gln-Met-Ala-Val-Lys-Lys-Tyr-Leu-Ala-Ala-Val-Leu-Gly-Lys-Arg-Tyr-Lys-Gln-Arg-Val-Lys-Asn-Lys (HSDGIFTDSRYSRYRKQMAVKKYLAAVLGKRYKQRVNK; listed as Homo sapiens) [PACAP, neuropeptide of 38 amino acid residues]”: the “time dependence of mPAP decrease” value in test [3] (PPH patient) is “time-dependently decrease”. The CI in [3] (Table 1, after, mean, before mean 2.7) turned out to be 3.2. The molecule also came in with a PCWP in test [3] (Table 1, after, mean, before mean 8.6) of 8.5. In test [3] (Table 1, after, mean, before mean 57.1), the mPAP was found to be 44.4. For the same molecule, the SvO2 in [3] (Table 1, after, mean, before mean 60.0) is reported as 62.5. The same molecule gave a PaO2 in test [3] (Table 1, after, mean, before mean 66.8) of 69.3. In test [3] (Table 1, after, mean, before mean 84.5), the mAP worked out at 81.0. In test [3] (Table 1, after, mean, before mean 906.4), this molecule returned a PVR of 544.1. In addition, in [5], the “mean pulmonary artery pressure (mPAP) after inhalation” value was found to be 45 mmHg, the PVR after inhalation worked out at 8 woods, the SvO2 after inhalation was found to be 62% and the PaO2 after inhalation is recorded as 93%.

B1: 99mTc-labelled vasoactive intestinal peptide (VIP) (peptide)
peptide: HSDAVFTDNYTRLRKQMAVKKYLNSILN
modifications: ends and bridges not checked; also: 99mTc radiolabel, site and chelator not given here
B1 had a Bmax (pm per mg protein) in test [10] of 0.6. For the same molecule, in test [11], the Bmax (pm per mg protein) worked out at 0.9 and the dissociation constant Kd turned out to be 1.6 pM.
